Results: publication PMC8586700 (Frontiers in Pharmacology, 2021)
Like-named read-outs stand apart in the source and are kept apart here.

Legend:
[1] = Stability experiment in plasma and brain homogenate samples; assay type: in vitro ADME, SD rats; conditions: for Recoveries after being kept at room temperature for 12 h: plasma samples
Description: Three blank samples of plasma and brain homogenate of SD rats were added into the mixed standard solution. The stability experiment included placing at room temperature for 12 h, repeatedly freeze-thaw for three times and frozen for 15 days.

[2] = Repeated administration, drug concentrations of plasma and brain; assay type: in vivo, SD rats; conditions: for Detection in brain tissue: after repeated administration; for Mean concentrations±sd in brain after multiple doses: brain homogenate; for Effect on plasma concentration of DHC: repeated administration with CUR
Description: (§1) Plasma or brain homogenate of SD rats was taken 50 μL, internal standard solution of 50 μL and protein precipitator of 150 μL were added. After eddy oscillation for 3 min, supernatant was separated by centrifugation.
The concentration of drugs in plasma and brain homogenate after repeated administration was determined according to the same grouping and administration method. The loading dose of 200 mg kg^−1 was given for the first time and half doses for four consecutive days.
(§2) Plasma was collected by centrifugation of blood at 3000 RPM for 10min, and stored at -80 °C. Brain tissue of SD rat was dissected, weighed and added with normal saline at a volume of 2 ml g^−1. After homogenating brain tissue for 3 min by a homogenizer at 14,000 RPM, the supernatant was collected after centrifugation at 12,000 RPM for 10 min.

[3] = set-up: method as in Yang et al., 2007; conditions: ref Yang et al., 2007; cited from earlier work
[4] = Solubility in solvents and vehicles; assay type: physicochemical
Text: DMSO is a universal organic solvent that is mutually soluble with most solvents and has a protective effect on red blood cells, platelets, bone marrow and various tissue cells during cryopreservation ([Willson et al., 1965]).

rats = test system: rats; set-up: method as in Willson et al., 1965; conditions: intragastric administration, ref Willson et al., 1965; cited from earlier work
[5] = Pharmacokinetic experiment, single intragastric administration, plasma by HPLC-UV; assay type: in vivo, SD rats; conditions: for concentration at 40 min / concentration at 60 min / concentration at 90 min / concentration at 150 min / concentration at 210 min: SD (Sprague-Dawley); for concentration at 40 min / concentration at 60 min / concentration at 90 min / concentration at 150 min / concentration at 210 min / concentration at 20 min / concentration at 270 min / concentration at 330 min / AUC / Cmax / half-life / Tmax: rat, plasma, po; for concentration at 20 min / concentration at 270 min / concentration at 330 min: SD; for AUC / Cmax / half-life / Tmax: Sprague-Dawley, 150 mg/kg, PIP or ILE 150 mg kg^−1 oral together with CUR 200 mg kg^−1; for AUC: read-out: AUC(0-tn) (converted); for Cmax: read-out: Cmax; for half-life: read-out: T1/2(el); for Tmax: read-out: Tmax (converted); for Effect of combined administration with CUR on plasma concentration of DHC: single administration, drug-time curve
Description: An Agilent 1200 HPLC system was used. […] The flow rate was set at 1 ml min^−1 and detection wavelength was 420, 340 and 323 nm. Injection volume was 5 μL. The column temperature was set at 30°C.
as §1
Blood samples were collected from tail vein at 20 min, 40 min, 1, 1.5, 2.5, 3.5, 4.5, and 5.5 h after intragastric administration.
as §2

[6] = ILE compared with PIP at the same dose
[7] = Mean concentrations ±sd, ILE, Group C (CUR 200 mg kg^−1 and ILE 150 mg kg^−1 oral)
[8] = Group B (CUR 200 mg kg^−1 and PIP 150 mg kg^−1 oral), read-out: Mean concentrations ±sd, PIP

Structure (SMILES) | Recoveries after repeated freezing-thawing for three times ([1]; brain homogenate) | Recoveries after repeated freezing-thawing for three times ([1]; plasma) | Recoveries after being kept at room temperature for 12 h [1] | Detection in brain tissue [2] | Solubility in DMSO [4] | AUC [5] | Cmax [5] | half-life [5] | Tmax [5] | Effect of combined administration with CUR on plasma concentration of DHC [5] | Mean concentrations±sd in brain after multiple doses [2] | Effect on plasma concentration of DHC [2] | also measured
COc1cc(/C=C/C(=O)CC(=O)/C=C/c2ccc(O)c(OC)c2)ccc1O [CUR, Curcumin] | over 100% | over 100% | less than 30% | could not be detected | well dissolved |  |  |  |  |  |  |  | recovery at 12 h ([1]; SD, rat, brain homogenate samples, read-out: Recovery after 12 h placement at room temperature): < 15%; Oral bioavailability [3]: 1%; Solubility in EtOH and glycerin [4]: slightly soluble; Solubility in water and various plant extracted oils [4]: insoluble
C[S+](C)[O-] [DMSO, dimethyl sulfoxide] |  |  |  |  |  |  |  |  |  |  |  |  | Adverse reactions in the experimental animals ([2]; DMSO as solvent of intragastric administration for five consecutive days, SD rats): no adverse reactions occurred; LD50 (rats): 28300 mg/kg
O=C(/C=C/c1ccc2c(c1)OCO2)N1CCCCC1 [ILE, Ilepcimide, reference compound] | over 100% | over 100% |  | could be detected | well dissolved | 15400 ng·h/mL | 5500 ± 2000 ng/mL | 1.67 ± 0.287 h | 3.07 h | could increase plasma concentration of DHC | 1600 ± 200 ng/mL | could both increase the plasma concentration of DHC | AUC(0-tn) increased by [5, 6]: 32.1%; T1/2 decreased by [5, 6]: 40.2%; Tmax increased by [5, 6]: 1.7 times; concentration at 40 min [5, 7]: 1600 ± 100 ng/mL; concentration at 60 min [5, 7]: 2000 ± 500 ng/mL; concentration at 90 min [5, 7]: 2800 ± 900 ng/mL; concentration at 150 min [5, 7]: 5500 ± 1900 ng/mL; concentration at 210 min [5, 7]: 3400 ± 500 ng/mL; concentration at 20 min [5, 7]: 1300 ± 800 ng/mL; concentration at 270 min [5, 7]: 2200 ± 400 ng/mL; concentration at 330 min [5, 7]: 1200 ± 800 ng/mL
O=C(/C=C/C=C/c1ccc2c(c1)OCO2)N1CCCCC1 [PIP, Piperine, reference compound] | over 100% | over 100% | lower than 75% | could be detected | well dissolved | 11700 ng·h/mL | 4200 ± 700 ng/mL | 2.79 ± 0.59 h | 1.13 h | no obvious effect | 2100 ± 100 ng/mL | could both increase the plasma concentration of DHC | Recovery after 12 h placement at room temperature ([1]; brain homogenate samples): only showed slight decrease; concentration at 40 min [5, 8]: 2100 ± 700 ng/mL; concentration at 60 min [5, 8]: 4200 ± 700 ng/mL; concentration at 90 min [5, 8]: 2600 ± 500 ng/mL; concentration at 150 min [5, 8]: 2400 ± 900 ng/mL; concentration at 210 min [5, 8]: 2200 ± 500 ng/mL; concentration at 20 min [5, 8]: 1400 ± 400 ng/mL; concentration at 270 min [5, 8]: 1700 ± 400 ng/mL; concentration at 330 min [5, 8]: 1400 ± 200 ng/mL; Mean concentrations±sd, PIP in plasma after multiple doses ([2]; Group II: CUR and PIP): 2400 ± 500 ng/mL
